The results in this text go back to patent US20070276011A1, “Plasminogen Activator Inhibitor-1 Inhibitor” (priority 2003, published 2007).

The target of assay [1] is T1, recombinant human PAI-1 (Homo sapiens, UniProt P05121). Description: PAI-1 inhibitory activity, Test Method A (tPA fluorogenic substrate, Tris buffer pH8.0, 37 C). Type of assay: biochemical. Conditions: for IC50: 50% inhibitory concentration of PAI-1 activity, according to the aforementioned method; for Inhibitory Ratio at 25 μM (%): Test Method A.
Assay [2] concerns the target T1, recombinant human PAI-1. In words: Inhibition of complex formation of PAI-1 and tPA (SDS-PAGE). Format: biochemical. The conditions noted are these: 100 μM concentration. The protocol: To a 2.5 μL solution obtained by diluting a DMSO solution of the test compound at 4-fold concentration of the test concentration with PBS(-), 5 μL of 150 nM recombinant human PAI-1 solution adjusted with a phosphate buffer (pH6.6, 0.05M Sodium Phosphate, 0.1 M NaCl, 1 mM EDTA) was added, and reacted for 5 minutes at 37° C. […] of 600 nM recombinant human one-chain tPA solution adjusted with PBS(-) was added, and further reacted for 5 minutes at 37° C. 10 μL of stop buffer (1.25 mM Tris-HCl pH6.8, 4% SDS, 0.01% BPB, 14% Glycerol) was added, heated for 30 seconds at 100° C., and then the total amount of 20 μL was applied to 10% SDS-PAGE gel electrophoresis. When the test compound was not added as being a control, a band of PAI-1-tPA complex was observed.

A value given as a limit tells only on which side of the number the result lay.

T1 sequence (P05121 24-402): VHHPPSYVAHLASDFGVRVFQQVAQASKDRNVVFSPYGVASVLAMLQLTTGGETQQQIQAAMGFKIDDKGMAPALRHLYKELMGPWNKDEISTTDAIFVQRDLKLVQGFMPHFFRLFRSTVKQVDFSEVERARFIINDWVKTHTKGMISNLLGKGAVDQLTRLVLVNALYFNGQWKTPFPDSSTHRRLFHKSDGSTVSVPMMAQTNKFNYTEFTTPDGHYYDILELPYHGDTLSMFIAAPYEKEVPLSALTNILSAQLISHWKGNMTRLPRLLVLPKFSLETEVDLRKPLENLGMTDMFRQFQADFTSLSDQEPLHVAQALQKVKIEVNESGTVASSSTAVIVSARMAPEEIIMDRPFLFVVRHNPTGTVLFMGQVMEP

By IC50 is commonly meant the concentration that inhibits the measured activity by half. For `O=C1SC(=Cc2cccc(O)c2O)C(=O)N1Cc1ccc(Br)cc1` [compound 36, 5-(2,3-Dihydroxybenzylidene)-3-(4-bromobenzyl)thiazolidine-2,4-dione], in assay [1], the IC50 turned out to be 450 nM. Moreover, the “Inhibitory Ratio at 25 μM (%)” value in assay [1] (test compound 25 μM) was more than 99%. In assay [2], the “inhibition of the complex formation of PAI-1 and tPA observed with SDS-PAGE” value (“inhibition” for short) was “completely inhibited”.
On to `O=C1SC(=Cc2cccc(O)c2O)C(=O)N1Cc1ccc(C(F)(F)F)cc1` [compound 43, 5-(2,3-Dihydroxybenzylidene)-3-[4-(trifluoromethyl)benzyl]thiazolidine-2,4-dione], for which the IC50 in assay [1] turned out to be 360 nM. In addition, the “Inhibitory Ratio at 25 μM (%)” value in assay [1] (test compound 25 μM) is reported as more than 99%. In assay [2], the “inhibition” value is “completely inhibited”.
Taken in the same sequence, the figures for `O=C1SC(=Cc2cccc(O)c2O)C(=O)N1Cc1ccc(C=Cc2ccccc2)cc1` [compound 56, 5-(2,3-Dihydroxybenzylidene)-3-(4-styrylbenzyl)thiazolidine-2,4-dione] were 140 nM, more than 99% and “completely inhibited”.
As to `O=C1C(=Cc2ccc(O)c(O)c2)SC(=S)N1Cc1ccc(Cl)c(Cl)c1` [compound 81, 5-(3,4-Dihydroxybenzylidene)-3-(3,4-dichlorobenzyl)rhodanine], the IC50 in assay [1] was 230 nM. Further, in assay [1] (test compound 25 μM), the “Inhibitory Ratio at 25 μM (%)” value is more than 99%. In assay [2], the “inhibition” value is “completely inhibited”.
For `O=C1C(=Cc2cc(O)c(O)cc2O)C(c2ccccc2)=NN1c1cc(Cl)cc(Cl)c1` [compound 136] the same measures were 390 nM, more than 99% and “completely inhibited”.
As to `CC(C)C1=NN(c2ccc(Cl)c(Cl)c2)C(=O)C1=Cc1cc(O)c(O)cc1O` [compound 141, 4-(2,4,5-trihydroxybenzylidene)-1-(3,4-dichlorophenyl)-3-isopropyl-2-pyrazolin-5-one], in assay [1], the IC50 amounted to 240 nM. Also, in assay [1] (test compound 25 μM), the “Inhibitory Ratio at 25 μM (%)” value is given as more than 99%. Further, the “inhibition” value in assay [2] is given as “completely inhibited”.
Taken in the same sequence, the figures for `CCOC1=NN(c2ccc([N+](=O)[O-])cc2)C(=O)C1=Cc1cc(O)c(O)cc1O` [compound 156] were 300 nM, 70% and “completely inhibited”.
In the case of `O=C(Cc1cccc(Oc2ccccc2)c1)Nc1ccc(CN2C(=O)SC(=Cc3cccc(O)c3O)C2=O)cc1` [compound 312, 5-(2,3-Dihydroxybenzylidene)-3-{4-[(3-phenoxyphenyl)acetylamino]-benzyl}thiazolidine-2,4-dione], the “Inhibitory Ratio at 25 μM (%)” value in assay [1] (25 μM test compound) is more than 99%. Moreover, the IC50 in assay [1] came out at 290 nM. For the same compound, the “inhibition” value in assay [2] is reported as “completely inhibited”.
For `O=C(Nc1ccc(CN2C(=O)SC(=Cc3cccc(O)c3O)C2=O)cc1)c1ccc(Oc2ccccc2)cc1` [compound 316, 5-(2,3-Dihydroxybenzylidene)-3-[4-(4-phenoxybenzoylamino)benzyl]-thiazolidine-2,4-dione] the same measures were more than 99%, 460 nM and “completely inhibited”.
For `O=C(Cc1cc(C(F)(F)F)cc(C(F)(F)F)c1)Nc1ccc(CN2C(=O)SC(=Cc3cccc(O)c3O)C2=O)cc1` [compound 317, 5-(2,3-Dihydroxybenzylidene)-3-{4-[3,5-Bis(trifluoromethyl)-phenylacetylamino]benzyl}thiazolidine-2,4-dione] the same measures were more than 99%, 420 nM and “completely inhibited”.
As for `O=C(Cc1cccc(Oc2ccccc2)c1)Nc1cccc(CN2C(=O)SC(=Cc3cccc(O)c3O)C2=O)c1` [compound 320, 5-(2,3-Dihydroxybenzylidene)-3-{3-[(3-phenoxyphenyl)acetylamino]-benzyl}thiazolidine-2,4-dione], the “Inhibitory Ratio at 25 μM (%)” value in assay [1] (25 μM test compound) is reported as more than 99%. Moreover, the IC50 in assay [1] came out at 340 nM. Besides, the “inhibition” value in assay [2] is “completely inhibited”.
Take `N=C(N)NCCC[C@H](N)C(=O)O.N=C(N)NCCC[C@H](N)C(=O)O.N=C(N)NCCC[C@H](N)C(=O)O.O=C1SC(=Cc2cc(O)c(O)c(O)c2)C(=O)N1Cc1ccc(Cl)c(Cl)c1` [compound 334, tri(L-(+)-arginine) salt of 5-(3,4,5-trihydroxybenzylidene)-3-(3,4-dichlorobenzyl)thiazolidine-2,4-dione]: in assay [1] (25 μM test compound), the “Inhibitory Ratio at 25 μM (%)” value was more than 99%. Further, in assay [1], the IC50 is 540 nM. Besides, the “inhibition” value in assay [2] is on record as “completely inhibited”.
Taken in the same sequence, the figures for `O=C1SC(=Cc2cc(O)c(O)c([N+](=O)[O-])c2)C(=O)N1Cc1ccc(Cl)c(Cl)c1` [compound 347] were more than 99%, 450 nM and “completely inhibited”.
For the compound `COc1cc(C=C2SC(=O)N(Cc3ccc(Cl)c(Cl)c3)C2=O)cc(C(=O)Nc2ccc(O)c(O)c2)c1O` [compound 349, 5-[3-Methoxy-4-hydroxy-5-(3,4-dihydroxyphenylcarbamoyl)-benzylidene]-3-(3,4-dichlorobenzyl)thiazolidine-2,4-dione], in assay [1] (25 μM test compound), the “Inhibitory Ratio at 25 μM (%)” value came to 87%. Besides, the IC50 in assay [1] is 570 nM. Moreover, in assay [2], the “inhibition” value is listed as “completely inhibited”.
In the case of `O=C(Nc1ccc(O)c(O)c1)c1cc(C=C2SC(=O)N(Cc3ccc(Cl)c(Cl)c3)C2=O)ccc1O` [compound 352], the “Inhibitory Ratio at 25 μM (%)” value in assay [1] (25 μM test compound) was determined as 66%. Besides, in assay [2], the “inhibition” value is “completely inhibited”.
Taken in the same sequence, the figures for `O=C(Nc1ccc(O)c(O)c1)c1cc(C=C2SC(=O)N(Cc3cc(C(F)(F)F)cc(C(F)(F)F)c3)C2=O)ccc1O` [compound 384] were 91% and “completely inhibited”.
Taken in the same sequence, the figures for `Cc1cc(C=C2SC(=O)N(Cc3ccc(Cl)c(Cl)c3)C2=O)cc(C(=O)Nc2ccc(O)c(O)c2)c1O` [compound 401, 5-[3-Methyl-4-hydroxy-5-(3,4-dihydroxyphenylcarbamoyl)-benzylidene]-3-(3,4-dichlorobenzyl)thiazolidine-2,4-dione] were 96% and “completely inhibited”.
With `O=C(Nc1ccc(O)c(O)c1)c1cc(C=C2SC(=O)N(Cc3ccc(C(F)(F)F)cc3)C2=O)ccc1O` [compound 402], in assay [1] (25 μM test compound), the “Inhibitory Ratio at 25 μM (%)” value is on record as 92%. Besides, in assay [2], the “inhibition” value is given as “completely inhibited”.
For `O=C(Nc1cc(C(F)(F)F)ccc1Cl)c1cc(C=C2SC(=O)N(Cc3ccc(Cl)c(Cl)c3)C2=O)ccc1O` [compound 423] the same measures were 75% and “completely inhibited”.
Take `O=C(Nc1cc(O)c(O)c(O)c1)c1cc(C=C2SC(=O)N(Cc3ccc(Cl)c(Cl)c3)C2=O)ccc1O` [compound 435]: the “Inhibitory Ratio at 25 μM (%)” value in assay [1] (25 μM test compound) came to 71%. Further, in assay [2], the “inhibition” value was “completely inhibited”.
Consider `O=C(Nc1cccc(O)c1O)c1cc(C=C2SC(=O)N(Cc3ccc(Cl)c(Cl)c3)C2=O)ccc1O` [compound 436], for which the “Inhibitory Ratio at 25 μM (%)” value in assay [1] (25 μM test compound) was more than 99%. Moreover, in assay [1], the half-inhibitory concentration (IC50) came out at 210 nM. For the same compound, the “inhibition” value in assay [2] was “completely inhibited”.
Turning to `O=C(Nc1cc(Cl)ccc1Cl)c1cc(C=C2SC(=O)N(Cc3ccc(Cl)c(Cl)c3)C2=O)ccc1O` [compound 441], the “Inhibitory Ratio at 25 μM (%)” value in assay [1] (25 μM test compound) is listed as 71%. Further, in assay [1], the IC50 turned out to be 480 nM. Moreover, in assay [2], the “inhibition” value was “completely inhibited”.
Consider `O=C(Nc1cc([N+](=O)[O-])ccc1Cl)c1cc(C=C2SC(=O)N(Cc3ccc(Cl)c(Cl)c3)C2=O)ccc1O` [compound 473], for which the “Inhibitory Ratio at 25 μM (%)” value in assay [1] (25 μM test compound) amounted to 70%. For the same compound, the IC50 in assay [1] is 390 nM. Also, in assay [2], the “inhibition” value is “completely inhibited”.
Taken in the same sequence, the figures for `O=C(Nc1cccc(OC(F)(F)F)c1)c1cc(C=C2SC(=O)N(Cc3ccc(Cl)c(Cl)c3)C2=O)cc(O)c1O` [compound 475] were 53%, 520 nM and “completely inhibited”.
Consider `CC1=NN(c2ccc(Cl)c(Cl)c2)C(=O)C1=Cc1cc(O)c(O)cc1O` [compound 503], for which, in assay [1] (25 μM test compound), the “Inhibitory Ratio at 25 μM (%)” value is more than 99%. Moreover, the “inhibition” value in assay [2] is listed as “completely inhibited”.
Turning to `CC(C)C1=NN(c2cc(Cl)cc(Cl)c2)C(=O)C1=Cc1cc(O)c(O)cc1O` [compound 504], the “Inhibitory Ratio at 25 μM (%)” value in assay [1] (25 μM test compound) was determined as 89%. Further, the IC50 in assay [1] is 290 nM. Also, the “inhibition” value in assay [2] is recorded as “completely inhibited”.
Consider `CC(C)C1=NN(c2ccc(F)c(Cl)c2)C(=O)C1=Cc1cc(O)c(O)cc1O` [compound 515, 4-(2,4,5-Trihydroxybenzylidne)-1-(3-chloro-4-fluorophenyl)-3-isopropyl-2-pyrazolin-5-one], for which the “Inhibitory Ratio at 25 μM (%)” value in assay [1] (25 μM test compound) is listed as more than 99%. Also, the IC50 in assay [1] was 500 nM. Further, the “inhibition” value in assay [2] was “completely inhibited”.
